Where “and” joins values, the source holds several entries; their conditions need not be identical. Equal values may be shown once. Inconclusive results and toxic doses are left out. No stated cut-off is given here; in the data, active means T/C of 150% or more; inactive means T/C below 125%.
Test system: L1210 leukemia ip in BDF1 mice, survival T/C
Test: NCI In Vivo Anticancer Drug Screen. Data for tumor model L1210 Leukemia (intraperitoneal) in B6D2F1 (BDF1) mice
Settings: endpoint: mean survival time, higher = longer survival
Procedure, shortened: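 Ratio derived from survival: compound-dosed mice over vehicle-dosed mice, all bearing a transplantable tumor.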

[1] = dose: 100.0 mg/kg/injection, schedule: Q04DX003 (ip), vehicle: saline with Tween-80
[2] = dose: 200.0 mg/kg/injection, schedule: Q04DX003 (ip), vehicle: saline with Tween-80
[3] = dose: 400.0 mg/kg/injection, schedule: Q04DX003 (ip), vehicle: saline with Tween-80
[4] = dose: 100.0 mg/kg/injection, schedule: Q01DX009 (ip), vehicle: saline with Tween-80
[5] = dose: 200.0 mg/kg/injection, schedule: Q01DX009 (ip), vehicle: saline with Tween-80
[6] = dose: 400.0 mg/kg/injection, schedule: Q01DX009 (ip), vehicle: saline with Tween-80

Measured: T/C

CCCCCCCCCCCCCCCCn1cnc2c(N)ncnc21
inactive: dose: 12.5 mg/kg/injection, schedule: Q01DX005 (ip), vehicle: other 104 % of control | dose: 25.0 mg/kg/injection, schedule: Q01DX005 (ip), vehicle: other 96 % of control | dose: 50.0 mg/kg/injection, schedule: Q01DX005 (ip), vehicle: other 101 % of control | dose: 100.0 mg/kg/injection, schedule: Q01DX005 (ip), vehicle: other 96 % of control | dose: 200.0 mg/kg/injection, schedule: Q01DX005 (ip), vehicle: other 95 % of control

CC(C)S(=O)(=O)/C(Cl)=C(/Cl)C(Cl)=C(Cl)Cl
inactive: dose: 12.5 mg/kg/injection, schedule: Q01DX009 (ip), vehicle: Klucel (hydroxypropylcellulose) (HPC) 106 % of control | dose: 25.0 mg/kg/injection, schedule: Q01DX009 (ip), vehicle: Klucel (hydroxypropylcellulose) (HPC) 101 % of control | dose: 50.0 mg/kg/injection, schedule: Q01DX009 (ip), vehicle: Klucel (hydroxypropylcellulose) (HPC) 95 % of control | dose: 100.0 mg/kg/injection, schedule: Q01DX009 (ip), vehicle: Klucel (hydroxypropylcellulose) (HPC) 87 % of control

CC1=NN(c2ccccc2)/C(=N/N=C(N)N)C1CC1C(C)=NN(c2ccccc2)/C1=N/N=C(N)N (configuration not stated)
inactive: dose: 15.0 mg/kg/injection, schedule: Q01DX Z (ip), vehicle: carboxymethylcellulose (CMC) 102 % of control | dose: 30.0 mg/kg/injection, schedule: Q01DX Z (ip), vehicle: carboxymethylcellulose (CMC) 97 % of control | dose: 60.0 mg/kg/injection, schedule: Q01DX Z (ip), vehicle: carboxymethylcellulose (CMC) 100 % of control and 102 % of control | dose: 120.0 mg/kg/injection, schedule: Q01DX Z (ip), vehicle: carboxymethylcellulose (CMC) 95 % of control and 96 % of control | dose: 240.0 mg/kg/injection, schedule: Q01DX Z (ip), vehicle: carboxymethylcellulose (CMC) 91 % of control

OC(/C=C/c1ccccc1)CC(O)(C(F)(F)F)C(F)(F)F (configuration not stated)
inactive: [1] 103 % of control | [2] 110 % of control | [3] 110 % of control

CCCCCCCCOC(=O)c1ccc2nc3cc4ccccc4cc3nc2c1
inactive: dose: 100.0 mg/kg/injection, schedule: Q04DX002 (ip), vehicle: Klucel (hydroxypropylcellulose) (HPC) 94 % of control | dose: 200.0 mg/kg/injection, schedule: Q04DX002 (ip), vehicle: Klucel (hydroxypropylcellulose) (HPC) 92 % of control | dose: 400.0 mg/kg/injection, schedule: Q04DX002 (ip), vehicle: Klucel (hydroxypropylcellulose) (HPC) 92 % of control

COc1cc(NC(=O)Oc2ccc([N+](=O)[O-])cc2)ccc1S(=O)(=O)F
inactive: [4] 94 % of control | [5] 103 % of control | [6] 103 % of control

CCC1(C)CC(=O)NC(=O)C1.[Tl]
inactive: dose: 3.12 mg/kg/injection, schedule: Q01DX009 (ip), vehicle: water 100 % of control | dose: 3.12 mg/kg/injection, schedule: Q04DX003 (ip), vehicle: water 97 % of control | dose: 6.25 mg/kg/injection, schedule: Q01DX009 (ip), vehicle: water 97 % of control | dose: 6.25 mg/kg/injection, schedule: Q04DX003 (ip), vehicle: water 100 % of control | dose: 12.5 mg/kg/injection, schedule: Q04DX003 (ip), vehicle: water 105 % of control

COc1ccc(OC)c(NC(=O)c2cc3ccccc3cc2OC(=O)Nc2cc(Cl)ccc2OC)c1
inactive: [4] 94 % of control | dose: 100.0 mg/kg/injection, schedule: Q04DX002 (ip), vehicle: saline with Tween-80 103 % of control and 112 % of control | [1] 103 % of control | [5] 98 % of control and 89 % of control | dose: 200.0 mg/kg/injection, schedule: Q04DX002 (ip), vehicle: saline with Tween-80 97 % of control and 87 % of control | [2] 102 % of control | [6] 102 % of control and 89 % of control | dose: 400.0 mg/kg/injection, schedule: Q04DX002 (ip), vehicle: saline with Tween-80 101 % of control and 91 % of control | [3] 97 % of control
